Measurements: patent US5710169A, “Therapeutic heterocycles” (Zeneca Limited, priority 1994, dated 1998)
Structures can show the parent of a compound that is named as a salt.

Target: T1, NK1 receptor (Oryctolagus cuniculus, UniProt G1SEI7)
T1 construct: The left and right branches of the pulmonary artery are isolated from the rest of the lung tissue; from tissue; host or cells: pulmonary artery ring segments with intact endothelium, male New Zealand white rabbit (Oryctolagus cuniculus)
Experiment: Rabbit Pulmonary Artery: NK1 in vitro functional assay (Test C)
Type: cell-based, New Zealand white rabbit
Conditions: agonist ASMSP, read-out: pKB (-log molar KB) in Test C (converted)
Procedure: Rabbit Pulmonary Artery: NK1 in vitro functional assay (Test C)
Male New Zealand white rabbits are killed by lethal injection (Nembutal, 60 mg/kg into a cannulated ear vein). Heparin, 0.0025 ml/kg of a 1000 U/ml solution, is injected into the ear vein prior to nembutal in order to decrease blood coagulation. The left and right branches of the pulmonary artery are isolated from the rest of the lung tissue and cut in half to provide four ring segments from each animal. […] Changes in tension are measured on a Grass polygraph via Grass FT-03 force transducers. […]
Potencies of the compounds are determined by calculating the apparent dissociation constants (KB) for each concentration tested using the standard equation: […]
where dose ratio=antilog[(agonist-log molar EC50 without compound)-(agonist-log molar EC50 with compound)]. The KB values are converted to the negative logarithms and expressed as -log molar KB (i.e. pKB). […] The EC50 values are converted to negative logarithms and expressed as -log molar EC50. Maximum relaxation responses to ASMSP are determined by expressing the maximum response to the agonist as a percentage of the relaxation caused by papaverine.

T1 sequence (G1SEI7 1-407): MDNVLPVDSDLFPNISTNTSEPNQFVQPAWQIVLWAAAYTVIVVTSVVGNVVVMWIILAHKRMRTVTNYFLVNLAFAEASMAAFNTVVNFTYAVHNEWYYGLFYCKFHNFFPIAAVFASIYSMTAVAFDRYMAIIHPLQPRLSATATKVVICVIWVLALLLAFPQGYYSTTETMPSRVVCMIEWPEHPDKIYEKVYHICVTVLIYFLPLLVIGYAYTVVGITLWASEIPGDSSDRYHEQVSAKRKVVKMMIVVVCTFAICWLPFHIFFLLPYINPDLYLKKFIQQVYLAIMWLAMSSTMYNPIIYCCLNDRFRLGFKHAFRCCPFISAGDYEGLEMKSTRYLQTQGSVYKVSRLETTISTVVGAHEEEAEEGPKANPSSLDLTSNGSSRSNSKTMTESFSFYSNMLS

COc1ccccc1CC(=O)N(C)CC(c1ccc(Cl)c(Cl)c1)N1CCC(O)(c2ccccc2)CC1 (stereo not shown) [Example 2, N-[2-(3,4-Dichlorophenyl)-2-(4-hydroxy-4-phenylpiperidino)ethyl]-N-methyl-2-methoxyphenylacetamide hydrochloride salt]
Kb: 631 nM
